Data from US20070224150A1, “Growth factor for hair and skin treatment” (priority 2005, published 2007).

Tested on: HACAT cells
Experiment: HACAT cell proliferation, MTT bioassay
Type: cell-based
Method: HACAT cells were seeded in 96 well plates and cultured for one day in DMEM medium with 10% FBS, then subjected to starvation for one day. After starvation, the cells were treated for three days with various dosages of EGF in serum free media. […] The ED50 was approximately 300 pg/ml.
HACAT cells were seeded in 96 well plates and cultured for one day in DMEM medium with 10% FBS, then subjected to starvation for one day. After starvation, the cells were treated for three days with various dosages of Anti-Aging Cytokine Complex AC (“AC ”), i.e. a mixture comprising EGF, bFGF, IGF-1 and TRX, in serum free media.
FIG. 3A depicts control cells, FIG. 3B cells treated with 0.5 ng/ml EGF, and FIG. 3C cells treated with 0.5 ng/ml of AC.

EGF: epidermal growth factor, composed of 53 amino acids
ED50 (cell proliferation) (starved one day, treated three days in serum free media): approximately 300 pg/ml | cell proliferation ratio versus untreated controls (three days, serum free media): higher cell proliferation ratios than the untreated controls
